These results are taken from the METLIN SMRT retention time set (Domingo-Almenara et al. 2019).

Molecules are shown by their SMILES.

A short description of the series: gradient 5% acetonitrile 3 min, to 50% in 2 min, to 85% in 15 min, held 3 min, 100 µL/min. As to conditions: column: Zorbax Extend-C18 2.1 x 50 mm; eluents: water / acetonitrile, 0.1% formic acid. In outline: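 Retention times of pure standards were taken from adduct peaks that were selected by computer and manually inspected. Over 3 months, mixtures of ~100 molecules were run by HPLC–quadrupole time-of-flight mass spectrometry in positive and negative ionization mode. The Zorbax Extend-C18 column (2.1 × 50 mm, 1.8 μm) ran at 100 μL/min in water and acetonitrile, each containing 0.1% formic acid, with 40 μL dead volume and 900 μL dwell volume.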
In the case of `COc1cccc(-n2ccc(=O)c(-c3nc(-c4cccc(OC)c4OC)no3)n2)c1`, the RP-LC retention time turned out to be 826 s.

`CC1Cc2ccccc2N1C(=O)Cn1c(=O)n(C(C)C)c2ccc(S(=O)(=O)N3CCCC3)cc21` (configuration not stated) came in with an RP-LC retention time of 963 s.

Take `CC1=C(c2ccc(C(C)C)cc2)S(=O)(=O)N=C1N1CCCN(C(=O)c2ccoc2)CC1`: the RP-LC retention time is 911 s.

For `CCc1ccc(S(=O)(=O)NCCc2cn(CC(C)C)c3ncccc23)cc1`, the RP-LC retention time amounted to 946 s.

`O=C(CSc1ccc(N2CCN(c3ccc(F)cc3)CC2)nn1)NCc1ccco1` showed an RP-LC retention time of 873 s.

On to `Cc1ccsc1CN1CCCC(c2nc(-c3cccnc3)n[nH]2)C1` (configuration not stated), for which the RP-LC retention time is 561 s.

In the case of `O=C(CCS(=O)(=O)c1ccccc1)Nc1cc(-c2ccco2)nn1CCO`, the RP-LC retention time amounted to 643 s.

For the compound `CCOc1ccc(-c2csc(Cc3nc(-c4ccc(Cl)cc4)no3)n2)cc1`, the RP-LC retention time was 1360 s.

On to `Cc1ccc(Cl)cc1NC(=O)N1CCN(c2ccc(=O)n(-c3ccccc3)n2)CC1`, for which the RP-LC retention time came out at 838 s.

As for `Cc1cccc(OCCc2noc(C3CCN(S(=O)(=O)N(C)C)C3)n2)c1` (configuration not stated), the RP-LC retention time was determined as 978 s.

The compound `OC(CN1CCC(Cc2ccc(F)cc2)CC1)c1ccc(Cl)cc1` (configuration not stated) returned an RP-LC retention time of 825 s.

`Cc1nn2c(CNC(=O)C(C)Oc3cccc(Cl)c3)c(C)nc2s1` (configuration not stated) gave an RP-LC retention time of 676 s.

In turn, `CSc1ccc(-c2noc(Cc3nnc(-c4ccc(C)c(C)c4)o3)n2)cc1` registered an RP-LC retention time of 1190 s.

`Cc1ccccc1C1CCCN1C(=O)c1cnn2cc(Br)cnc12` (configuration not stated) showed an RP-LC retention time of 869 s.

Take `CCCCc1ccc(NC(=O)Cn2cnc3c(sc4nc(-c5ccccc5)ccc43)c2=O)cc1`: the RP-LC retention time was determined as 1260 s.

Regarding `CSc1ccc(-c2nc3ccc(Cl)cn3c2Nc2ccc(C)cc2)cc1`, the RP-LC retention time was determined as 954 s.

With `CCC1CCCCN1CCCNC(=O)C1=C(C)C(=O)OC12CCN(C(C)=O)CC2` (configuration not stated), the RP-LC retention time was determined as 565 s.

In turn, `CCOC(=O)c1cnc2c(-c3ccc(F)cc3)c(COC)nn2c1N` gave an RP-LC retention time of 981 s.

As to `CSc1ccc(-c2nc3cnccn3c2Nc2cccc(C(=O)O)c2)cc1`, the RP-LC retention time was determined as 744 s.

The compound `COc1ccc(NC(=O)N2CCc3cn(CC(C)C)c4cccc(c34)C2)cc1` had an RP-LC retention time of 1030 s.

In turn, `O=C(C1CCN(S(=O)(=O)c2ccc(-c3noc(CCC4CCCC4)n3)cc2)CC1)N1CCCC1` returned an RP-LC retention time of 1190 s.

Regarding `COc1ccc(-c2nc3c4cnn(-c5ccccc5Cl)c4ncn3n2)cc1OC`, the RP-LC retention time came out at 845 s.

The compound `O=C(CCN1C(=O)c2cccc3cccc(c23)C1=O)NC1CCS(=O)(=O)C1` (configuration not stated) yielded an RP-LC retention time of 641 s.

For the compound `CS(=O)(=O)c1ccc(-c2ccc(NC(=O)c3cccs3)cc2)nn1`, the RP-LC retention time came to 698 s.

The compound `Cc1cc(C2CCCN2C(=O)c2c(F)cccc2Cl)no1` (configuration not stated) returned an RP-LC retention time of 773 s.

As for `CCCCOC(=O)c1ccc(Nc2ncnc(N)c2[N+](=O)[O-])cc1`, the RP-LC retention time came out at 930 s.

`CCC(CC)N1CCN(C(=O)c2ccc3[nH]c4c(c3c2)CN(C(=O)C2CCC2)CC4)CC1` registered an RP-LC retention time of 607 s.

`CCOC(=O)c1ccc(NC(=O)Cn2cnc3cc4c(cc32)OCCO4)cc1` gave an RP-LC retention time of 662 s.

In the case of `Cn1cc(CN2CCC(C(=O)NC3CCCCC3)CC2)c2cc(Cl)ccc21`, the RP-LC retention time is 702 s.

On to `CCCn1ncc(N2CCC(C(=O)Nc3ccc(OC)c(OC)c3)CC2)cc1=O`, for which the RP-LC retention time is 693 s.

`COc1cc(-c2nnc(-c3ccc(C)c(S(=O)(=O)N4CCCC4)c3)o2)cc(OC)c1OC` registered an RP-LC retention time of 986 s.

The compound `Cc1ccc(Cl)c2c1NC(=O)C2(O)CC(=O)c1ccc(F)cc1` (configuration not stated) showed an RP-LC retention time of 786 s.
